A short description of series [1]: CC50 assay in the anti-HCV replicon assay (CellTiter-Glo). The format is cell-based, human. The note with it: human, Huh-7 hepatoma cells harbouring an HCV replicon; Huh-7 HCV replicon cells, 3 days incubation, CellTiter-Glo luminescence. An outline of the steps: (§1)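 Huh-7 cells harbouring an HCV replicon (6000/well) incubated 3 days at 37° C with 3-fold serially diluted compound (0.5% DMSO final where used). EC50 from luciferase luminescence of lysed cells; CC50 from CellTiter-Glo luminescence in parallel plates.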

The subject of another series is HCV replicon. Kind of series: Anti-HCV replicon assay, EC50 (luciferase readout). The conditions noted are these: Hepatitis C virus, 72 h; Huh-7 HCV replicon cells, 3 days incubation, luciferase luminescence. The format is cell-based. An outline of the steps: as §1

Some results are limits rather than exact numbers.

`Nc1nc(OCCF)c2cc(-c3ccc(C(=O)NC4CC4)c(Cl)c3)ccc2n1` [Example 208, 4-[2-Amino-4-(2-fluoro-ethoxy)-quinazolin-6-yl]-2-chloro-N-cyclopropyl-benzamide] registered a CC50 at 3 days in series [1] of more than 20 µM. The EC50 with HCV replicon is 1 to 10 µM.

Compound `Nc1nc(OCCF)c2cc(-c3ccc(O)cc3)ccc2n1` [Example 209, 4-[2-Amino-4-(2-fluoro-ethoxy)-quinazolin-6-yl]-phenol] had a CC50 at 3 days in series [1] of more than 20 µM. Besides, the EC50 with HCV replicon was 1 to 10 µM.

As to `Nc1nc(OCCF)c2cc(-c3cccc(O)c3)ccc2n1` [Example 210, 3-[2-Amino-4-(2-fluoro-ethoxy)-quinazolin-6-yl]-phenol], the CC50 at 3 days in series [1] was more than 20 µM. The compound also returned an EC50 in the series on HCV replicon of 1 to 10 µM.

`Nc1nc(OCCF)c2cc(-c3ccc(C(=O)NC4CC4)cc3)ccc2n1` [Example 211, 4-[2-Amino-4-(2-fluoro-ethoxy)-quinazolin-6-yl]-N-cyclopropyl-benzamide] came in with a CC50 at 3 days in series [1] of more than 20 µM. The compound further gave an EC50 in the series on HCV replicon of 0.3 to 1 µM.

For the compound `CNC(=O)c1ccc(-c2ccc3nc(N)nc(OCCF)c3c2)cc1` [Example 212, 4-[2-Amino-4-(2-fluoro-ethoxy)-quinazolin-6-yl]-N-methyl-benzamide], the cytotoxic concentration (CC50) at 3 days in series [1] is more than 20 µM. The half-maximal effective concentration (EC50) in the series on HCV replicon is 1 to 10 µM.

For the compound `Nc1nc(OC[C@@H]2CCCO2)c2cc(-c3ccc(C(=O)NC4CC4)cc3)ccc2n1` [Example 213], in series [1], the CC50 at 3 days was more than 20 µM. Besides, the EC50 in the series on HCV replicon is less than 0.3 µM.

Turning to `CCOc1nc(N)nc2ccc(-c3ccc(C(N)=O)cc3)cc12` [Example 214, 4-(2-Amino-4-ethoxy-quinazolin-6-yl)-benzamide], the CC50 at 3 days in series [1] was more than 20 µM. The compound also registered an EC50 with HCV replicon of less than 0.3 µM.

In series [1], `Nc1nc(O[C@H]2CCOC2)c2cc(-c3ccc(C(=O)NC4CC4)cc3)ccc2n1` [Example 215, (S)-4-[2-Amino-4-(tetrahydro-furan-3-yloxy)-quinazolin-6-yl]-N-cyclopropyl-benzamide] showed a 50% cytotoxic concentration (CC50) at 3 days of more than 20 µM. In addition, the EC50 with HCV replicon was less than 0.3 µM.

For the compound `CN(C)CCNC(=O)c1ccc(-c2ccc3nc(N)nc(O[C@H]4CCOC4)c3c2)cc1` [Example 216], the CC50 at 3 days in series [1] is more than 20 µM. For the same compound, the EC50 in the series with HCV replicon is less than 0.3 µM.

As for `Nc1nc(O[C@@H]2CCOC2)c2cc(-c3ccc(C(=O)NCCN4CCOCC4)cc3)ccc2n1` [Example 217, (R)-4-[2-Amino-4-(tetrahydro-furan-3-yloxy)-quinazolin-6-yl]-N-(2-morpholin-4-yl-ethyl)-benzamide], the CC50 at 3 days in series [1] was more than 20 µM. Also, in the series on HCV replicon, the EC50 was less than 0.3 µM.

In series [1], `Nc1nc(O[C@@H]2CCOC2)c2cc(-c3ccc(C(=O)NCCN4CCCC4)cc3)ccc2n1` [Example 218, (R)-4-[2-Amino-4-(tetrahydro-furan-3-yloxy)-quinazolin-6-yl]-N-(2-pyrrolidin-1-yl-ethyl)-benzamide] showed a CC50 at 3 days of less than 10 µM. Moreover, in the series with HCV replicon, the EC50 is less than 0.3 µM.

`Nc1nc(O[C@@H]2CCOC2)c2cc(-c3ccc(C(=O)NCC(F)(F)F)cc3)ccc2n1` [Example 219, (R)-4-[2-Amino-4-(tetrahydro-furan-3-yloxy)-quinazolin-6-yl]-N-(2,2,2-trifluoro-ethyl)-benzamide] gave a CC50 at 3 days in series [1] of more than 20 µM. The same compound gave a concentration giving a half-maximal response (EC50) in the series with HCV replicon of less than 0.3 µM.

Consider `Nc1nc(O[C@@H]2CCOC2)c2cc(-c3ccc(C(=O)NCCCN4CCCC4)cc3)ccc2n1` [Example 220, (R)-4-[2-Amino-4-(tetrahydro-furan-3-yloxy)-quinazolin-6-yl]-N-(3-pyrrolidin-1-yl-propyl)-benzamide], for which the CC50 at 3 days in series [1] is less than 10 µM. In the series with HCV replicon, this compound displayed an EC50 of less than 0.3 µM.

`CC(C)(CN1CCOCC1)NC(=O)c1ccc(-c2ccc3nc(N)nc(O[C@@H]4CCOC4)c3c2)cc1` [Example 222, (R)-4-[2-Amino-4-(tetrahydro-furan-3-yloxy)-quinazolin-6-yl]-N-(1,1-dimethyl-2-morpholin-4-yl-ethyl)-benzamide]: the CC50 at 3 days in series [1] was more than 20 µM. Moreover, the EC50 in the series on HCV replicon was less than 0.3 µM.

In turn, `CC(C)(CN1CCCC1)NC(=O)c1ccc(-c2ccc3nc(N)nc(O[C@@H]4CCOC4)c3c2)cc1` [Example 223, (R)-4-[2-Amino-4-(tetrahydro-furan-3-yloxy)-quinazolin-6-yl]-N-(1,1-dimethyl-2-pyrrolidin-1-yl-ethyl)-benzamide] displayed a 50% cytotoxic concentration (CC50) at 3 days in series [1] of less than 10 µM. The compound further returned an EC50 with HCV replicon of less than 0.3 µM.

Regarding `N#CC1(NC(=O)c2ccc(-c3ccc4nc(N)nc(O[C@@H]5CCOC5)c4c3)cc2)CC1` [Example 224, (R)-4-[2-Amino-4-(tetrahydro-furan-3-yloxy)-quinazolin-6-yl]-N-(1-cyano-cyclopropyl)-benzamide], in series [1], the CC50 at 3 days was more than 20 µM. Moreover, in the series with HCV replicon, the EC50 was less than 0.3 µM.

As for `CC(C)N1CCC(NC(=O)c2ccc(-c3ccc4nc(N)nc(O[C@@H]5CCOC5)c4c3)cc2)CC1` [Example 225, (R)-4-[2-Amino-4-(tetrahydro-furan-3-yloxy)-quinazolin-6-yl]-N-(1-isopropyl-piperidin-4-yl)-benzamide], in series [1], the CC50 at 3 days was more than 20 µM. The compound also yielded an EC50 in the series with HCV replicon of 1 to 10 µM.

In the case of `CN(C)CCCOc1nc(N)nc2ccc(-c3cc4ccccc4o3)cc12` [Example 227, 6-benzofuran-2-yl-4-(3-dimethylaminopropoxy)-quinazolin-2-ylamine], the CC50 at 3 days in series [1] was more than 20 µM. The compound also registered an EC50 with HCV replicon of 1 to 10 µM.

In turn, `CN(C)CCCOc1nc(N)nc2ccc(-c3ccc(Cl)cc3Cl)cc12` [Example 229, 6-(2,4-Dichlorophenyl)-4-(3-dimethylamino-propoxy)-quinazolin-2-ylamine] showed a CC50 at 3 days in series [1] of more than 20 µM. This compound came in with an EC50 in the series with HCV replicon of 1 to 10 µM.

Compound `CN(C)CCCOc1nc(N)nc2ccc(-c3cc(F)c(F)c(F)c3)cc12` [Example 230, 4-(3-Dimethylamino-propoxy)-6-(3,4,5-trifluoro-phenyl)-quinazolin-2-ylamine] had a CC50 at 3 days in series [1] of more than 20 µM. The compound also displayed an EC50 in the series with HCV replicon of 1 to 10 µM.

With `Cc1cc(C)cc(-c2ccc3nc(N)nc(OCCCN(C)C)c3c2)c1` [Example 231, 4-(3-Dimethylamino-propoxy)-6-(3,5-dimethyl-phenyl)-quinazolin-2-ylamine], the CC50 at 3 days in series [1] is more than 20 µM. For the same compound, in the series on HCV replicon, the EC50 was in the range of 1 to 10 µM.

Take `CN(C)CCCOc1nc(N)nc2ccc(-c3ccc(Cl)cc3)cc12` [Example 232, 6-(4-Chloro-phenyl)-4-(3-dimethylamino-propoxy)-quinazolin-2-ylamine]: the CC50 at 3 days in series [1] is more than 20 µM. In addition, in the series with HCV replicon, the EC50 lay within 1 to 10 µM.

Compound `CN(C)CCCOc1nc(N)nc2ccc(-c3cccc(C(F)(F)F)c3)cc12` [Example 233, 4-(3-Dimethylamino-propoxy)-6-(3-trifluoromethyl-phenyl)-quinazolin-2-ylamine] returned a CC50 at 3 days in series [1] of more than 20 µM. The EC50 in the series on HCV replicon was in the range of 1 to 10 µM.

On to `Nc1nc(OCCN2CCOCC2)c2cc(-c3ccc(Cl)c(C(F)(F)F)c3)ccc2n1` [Example 234, 6-(4-Chloro-3-trifluoromethyl-phenyl)-4-(2-morpholin-4-yl-ethoxy)-quinazolin-2-ylamine], for which, in series [1], the CC50 at 3 days was in the range of 10 to 20 µM. Besides, in the series on HCV replicon, the EC50 lay within 1 to 10 µM.

In the case of `Nc1nc(OCCN2CCOCC2)c2cc(-c3ccc(O)cc3)ccc2n1` [Example 235, 4-[2-Amino-4-(2-morpholin-4-yl-ethoxy)-quinazolin-6-yl]-phenol], the half-maximal cytotoxic concentration (CC50) at 3 days in series [1] is more than 20 µM. Moreover, the concentration for a half-maximal effect (EC50) in the series with HCV replicon fell in the range of 1 to 10 µM.

Turning to `Nc1nc(OCCN2CCOCC2)c2cc(-c3ccsc3)ccc2n1` [Example 236, 4-(2-Morpholin-4-yl-ethoxy)-6-thiophen-3-yl-quinazolin-2-ylamine], the 50% cytotoxic concentration (CC50) at 3 days in series [1] was more than 20 µM. In addition, the concentration for a half-maximal effect (EC50) with HCV replicon is 1 to 10 µM.

The compound `Nc1nc(OCCN2CCOCC2)c2cc(-c3cccs3)ccc2n1` [Example 237, 4-(2-Morpholin-4-yl-ethoxy)-6-thiophen-2-yl-quinazolin-2-ylamine] returned a CC50 at 3 days in series [1] of more than 20 µM. In the series on HCV replicon, this compound returned an EC50 of 1 to 10 µM.

Compound `Nc1nc(OCCN2CCOCC2)c2cc(-c3cc4ccccc4o3)ccc2n1` [Example 238, 6-Benzofuran-2-yl-4-(2-morpholin-4-yl-ethoxy)-quinazolin-2-ylamine] returned a CC50 at 3 days in series [1] of 10 to 20 µM. Also, the EC50 with HCV replicon lay in the range of 1 to 10 µM.

Consider `Nc1nc(OCCN2CCOCC2)c2cc(-c3ccoc3)ccc2n1` [Example 239, 6-Furan-3-yl-4-(2-morpholin-4-yl-ethoxy)-quinazolin-2-ylamine], for which, in series [1], the CC50 at 3 days lay in the range of 10 to 20 µM. In the series on HCV replicon, this compound gave an EC50 of 1 to 10 µM.

`Nc1nc(OCCN2CCOCC2)c2cc(-c3cc4ccccc4s3)ccc2n1` [Example 240, 6-Benzo[b]thiophen-2-yl-4-(2-morpholin-4-yl-ethoxy)-quinazolin-2-ylamine] showed a CC50 at 3 days in series [1] of more than 20 µM. Also, in the series on HCV replicon, the EC50 was 1 to 10 µM.

Regarding `Nc1nc(OCCN2CCOCC2)c2cc(-c3ccccc3C(F)(F)F)ccc2n1` [Example 241, 4-(2-Morpholin-4-yl-ethoxy)-6-(2-trifluoromethyl-phenyl)-quinazolin-2-ylamine], the CC50 at 3 days in series [1] is more than 20 µM. In the series with HCV replicon, this compound displayed an EC50 of 1 to 10 µM.

As to `Nc1nc(OCCN2CCOCC2)c2cc(-c3cccc(C(F)(F)F)c3)ccc2n1` [Example 242, 4-(2-Morpholin-4-yl-ethoxy)-6-(3-trifluoromethyl-phenyl)-quinazolin-2-ylamine], in series [1], the half-maximal cytotoxic concentration (CC50) at 3 days is 10 to 20 µM. This compound yielded an EC50 with HCV replicon of 1 to 10 µM.

As for `Nc1nc(OCCN2CCOCC2)c2cc(-c3cccc(F)c3F)ccc2n1` [Example 243, 6-(2,3-Difluoro-phenyl)-4-(2-morpholin-4-yl-ethoxy)-quinazolin-2-ylamine], the CC50 at 3 days in series [1] was more than 20 µM. This compound returned an EC50 in the series on HCV replicon of 1 to 10 µM.

`CC(C)Oc1ncnc2ccc(-c3ccsc3)cc12` [Example 244, 4-isopropoxy-6-thiophen-3-yl-quinazoline] came in with a CC50 at 3 days in series [1] of more than 20 µM. Besides, the EC50 in the series with HCV replicon was 1 to 10 µM.

In series [1], `CNC(=O)c1ccc(-c2ccc3ncnc(OC(C)C)c3c2)cc1` [Example 245, 4-(4-Isopropoxy-quinazolin-6-yl)-N-methyl-benzamide] yielded a CC50 at 3 days of more than 20 µM. This compound had a concentration for a half-maximal effect (EC50) in the series with HCV replicon of 1 to 10 µM.
